Consider 3 compounds from EP3046573B1, “AMYLIN ANALOGUES” (Zealand Pharma A/S, priority 2013, dated 2015).

By EC50 is commonly meant the concentration giving half of the maximal effect.

Numbered stars: 1 amine (or outer) side, 2 acyl side, 3 side chain; on linkers, the order of the positions; unused ones are H or OH. Bridge positions count the residues as written; N and C are the ends. Square brackets hold non-standard residues; d marks the D form. Peptide text beside a SMILES is read from it. * marks the point of attachment. C20 diacid = O=C(O)CCCCCCCCCCCCCCCCCCC(=O)*; γGlu = O=C(O)[C@H](CCC(=O)[*:2])N[*:1]; NMeI = CC[C@H](C)[C@H](NC)C(=O)O; Sar = CNCC(=O)O

For data set [1], the target named is T1, human amylin receptor 3 (hAMYR3) consisting of hCTR2 co-expressed with human Receptor Activity Modifying Protein 3 (hRAMP3) (Homo sapiens, UniProt O60896+P30988).
T1 construct: expressed in transfected cells
T1 sequence (P30988 25-474): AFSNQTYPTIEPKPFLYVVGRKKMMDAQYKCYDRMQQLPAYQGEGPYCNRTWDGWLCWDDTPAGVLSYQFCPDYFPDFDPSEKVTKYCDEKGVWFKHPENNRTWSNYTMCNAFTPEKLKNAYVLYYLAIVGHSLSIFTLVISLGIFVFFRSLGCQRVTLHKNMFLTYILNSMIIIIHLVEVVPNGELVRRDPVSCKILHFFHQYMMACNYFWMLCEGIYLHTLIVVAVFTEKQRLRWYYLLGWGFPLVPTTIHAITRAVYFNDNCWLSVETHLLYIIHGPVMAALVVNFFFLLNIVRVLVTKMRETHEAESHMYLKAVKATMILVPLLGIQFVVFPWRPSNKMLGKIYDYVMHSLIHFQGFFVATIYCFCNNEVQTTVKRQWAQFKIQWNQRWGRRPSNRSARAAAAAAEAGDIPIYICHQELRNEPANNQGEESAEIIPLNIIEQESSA
T1 sequence (O60896 24-148 partner): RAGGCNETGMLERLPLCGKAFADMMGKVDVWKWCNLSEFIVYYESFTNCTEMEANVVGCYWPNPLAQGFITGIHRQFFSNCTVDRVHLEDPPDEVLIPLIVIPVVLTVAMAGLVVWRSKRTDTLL
Kind of data set: hAMYR3 assay: induction of cAMP (AlphaScreen cAMP Assay kit) in COS7 cells expressing hAMYR3. The class given is cell-based. Conditions: cAMP induction in COS7 cells expressing hAMYR3; average of a minimum of 3 determinations; read-out: hAMY R3 EC50. A digest of the protocol: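 Stable COS7 clone co-expressing hCTR2 and hRAMP3, stimulated 15 min at 37° C with increasing peptide in Tyrode buffer pH 7.4 with 100 µM IBMX and 0.1% casein. cAMP measured by AlphaScreen after lysis; EC50 and % efficacy versus pramlintide from 4PL fit.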
In general terms: In Alpha technology, singlet oxygen from a donor bead excites a nearby acceptor bead.

Data set [2] has as its target T2, human calcitonin receptor (hCTR2) (Homo sapiens, UniProt P30988).
T2 construct: expressed in transfected cells
T2 sequence (P30988 25-474): T1 sequence (P30988 25-474)
Kind of data set: hCTR2 assay: induction of cAMP (AlphaScreen cAMP Assay kit) in COS7 cells expressing hCTR2. It counts as cell-based. Conditions: cAMP induction in COS7 cells expressing hCTR2; average of a minimum of 3 determinations; read-out: hCTR2 EC50. A digest of the protocol:
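Stable hCTR2 clone in RAMP-naive COS7 cells; peptides titrated in Tyrode buffer (pH 7.4) with 100 µM IBMX, 0.1% casein, 15 min at 37° C. cAMP read by AlphaScreen after lysis; EC50 and efficacy relative to pramlintide from 4PL fit.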

Data set [3] in a line: Solubility assessment (turbidity absorbance at 325 nm). The note with it: stock 2 mg/ml diluted 1:1, ambient temperature (typically 25°C), n=1; for Solubility, Acetate buffer pH 4: 100 mM acetate buffer pH 4.0; for Solubility, Acetate buffer pH 5: 100 mM acetate buffer pH 5.0; for Solubility, Histidine buffer pH 6: 100 mM histidine buffer pH 6.0; for Solubility, Histidine buffer pH 7: 100 mM histidine buffer pH 7.0; for Solubility, Phosphate buffer pH 6: 100 mM phosphate buffer pH 6.0; for Solubility, Phosphate buffer pH 7: 100 mM phosphate buffer pH 7.0; for Solubility, Phosphate buffer pH 7.5: 100 mM phosphate buffer pH7.5. The class given is physicochemical. In short, it runs like this:
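Peptide stock (2 mg/ml) in water acidified to pH 2.5 with HCl was diluted 1:1 into 100 mM acetate (pH 4.0, 5.0), histidine (pH 6.0, 7.0) or phosphate (pH 6.0, 7.0, 7.5) buffer. A280 and A325 were read at about 25°C, n=1. A325 ≤ 0.02 meant solubility ≥ 1 mg/ml.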

`CC[C@H](C)[C@@H](C(=O)N[C@@H](CC(C)C)C(=O)N[C@@H](CO)C(=O)N[C@@H](CO)C(=O)N[C@H](C(=O)N[C@@H](CCC(=O)O)C(=O)N[C@H](C(=O)NCC(=O)N[C@@H](CO)C(=O)N[C@@H](CCC(=O)O)C(=O)N[C@H](C(=O)N1CCC[C@H]1C(N)=O)[C@@H](C)O)C(C)C)[C@@H](C)O)N(C)C(=O)[C@H](C)NC(=O)CN(C)C(=O)[C@H](Cc1ccccc1)NC(=O)[C@H](CO)NC(=O)[C@H](CO)NC(=O)[C@H](CO)NC(=O)[C@H](CO)NC(=O)[C@H](CCCNC(=N)N)NC(=O)[C@H](Cc1c[nH]cn1)NC(=O)[C@H](CC(C)C)NC(=O)[C@H](Cc1ccccc1)NC(=O)[C@H](CCC(=O)O)NC(=O)[C@H](C)NC(=O)[C@H](CC(C)C)NC(=O)[C@H](CCCNC(=N)N)NC(=O)[C@H](CO)NC(=O)[C@@H](NC(=O)[C@H](C)NC(=O)[C@@H]1CSSC[C@H](NC(=O)[C@H](CCCNC(=N)N)NC(=O)CC[C@H](NC(=O)CCCCCCCCCCCCCCCCCCC(=O)O)C(=O)O)C(=O)N[C@@H](CC(=O)O)C(=O)N[C@@H]([C@@H](C)O)C(=O)N[C@@H](C)C(=O)N[C@@H]([C@@H](C)O)C(=O)N1)[C@@H](C)O` [Compound 138, [19CD]-isoGlu-RC()DTATC()ATSRLAEFLHRSSSSF-Gly(Me)-A-Ile(Me)-LSSTEVGSETP-NH2] ({C20 diacid-γGlu}-RCDTATCATSRLAEFLHRSSSSF[Sar]A[NMeI]LSSTEVGSETP-NH2; disulfide 2-7): in data set [1], the EC50 was 0.34 nM. For the same compound, the EC50 in data set [2] stood at 0.23 nM. Besides, in data set [3], the “Solubility, Acetate buffer pH 4” value was “SS (SS indicates solubility ≥ 1mg/ml)”; the “Solubility, Acetate buffer pH 5” value is listed as “SS (SS indicates solubility ≥ 1mg/ml)”; the “Solubility, Histidine buffer pH 6” value is “SS (SS indicates solubility ≥ 1mg/ml)”; the “Solubility, Histidine buffer pH 7” value is given as “SS (SS indicates solubility ≥ 1mg/ml)”. Further, in data set [3], the “Solubility, Phosphate buffer pH 6” value is “SS (SS indicates solubility ≥ 1mg/ml)”; the “Solubility, Phosphate buffer pH 7” value is “SS (SS indicates solubility ≥ 1mg/ml)”; the “Solubility, Phosphate buffer pH 7.5” value is reported as “SS (SS indicates solubility ≥ 1mg/ml)”.

In the case of `CC[C@H](C)[C@@H](C(=O)N[C@@H](CC(C)C)C(=O)N[C@@H](CO)C(=O)N[C@@H](CO)C(=O)N[C@H](C(=O)N[C@@H](CCC(=O)O)C(=O)N[C@H](C(=O)NCC(=O)N[C@@H](CO)C(=O)N[C@@H](CCC(=O)O)C(=O)N[C@H](C(=O)N1CCC[C@H]1C(N)=O)[C@@H](C)O)C(C)C)[C@@H](C)O)N(C)C(=O)[C@H](C)NC(=O)CN(C)C(=O)[C@H](Cc1ccccc1)NC(=O)[C@H](CO)NC(=O)[C@H](CO)NC(=O)[C@H](CO)NC(=O)[C@H](CO)NC(=O)[C@H](CCCNC(=N)N)NC(=O)[C@H](Cc1c[nH]cn1)NC(=O)[C@H](CC(C)C)NC(=O)[C@H](Cc1ccccc1)NC(=O)[C@H](CCC(=O)O)NC(=O)[C@H](C)NC(=O)[C@H](CC(C)C)NC(=O)[C@H](CCCNC(=N)N)NC(=O)[C@H](CO)NC(=O)[C@@H](NC(=O)[C@H](C)NC(=O)[C@@H]1CSSC[C@H](NC(=O)[C@H](CCCNC(=N)N)NC(=O)CC[C@H](NC(=O)CCCCCCCCCCCCCCCCCCC(=O)O)C(=O)O)C(=O)N[C@@H](CCC(=O)O)C(=O)N[C@@H]([C@@H](C)O)C(=O)N[C@@H](C)C(=O)N[C@@H]([C@@H](C)O)C(=O)N1)[C@@H](C)O` [Compound 139, [19CD]-isoGlu-RC()ETATC()ATSRLAEFLHRSSSSF-Gly(Me)-A-Ile(Me)-LSSTEVGSETP-NH2] ({C20 diacid-γGlu}-RCETATCATSRLAEFLHRSSSSF[Sar]A[NMeI]LSSTEVGSETP-NH2; disulfide 2-7), the EC50 in data set [1] is 0.35 nM. In addition, the EC50 in data set [2] was 0.15 nM. Also, in data set [3], the “Solubility, Acetate buffer pH 4” value is “SS (SS indicates solubility ≥ 1mg/ml)”; the “Solubility, Acetate buffer pH 5” value is listed as “SS (SS indicates solubility ≥ 1mg/ml)”; the “Solubility, Histidine buffer pH 6” value is on record as “SS (SS indicates solubility ≥ 1mg/ml)”; the “Solubility, Histidine buffer pH 7” value was “SS (SS indicates solubility ≥ 1mg/ml)”. Also, in data set [3], the “Solubility, Phosphate buffer pH 6” value is “SS (SS indicates solubility ≥ 1mg/ml)”; the “Solubility, Phosphate buffer pH 7” value is “SS (SS indicates solubility ≥ 1mg/ml)”; the “Solubility, Phosphate buffer pH 7.5” value is listed as “SS (SS indicates solubility ≥ 1mg/ml)”.

As to `CC[C@H](C)[C@@H](C(=O)N[C@@H](CC(C)C)C(=O)N[C@@H](CO)C(=O)N[C@@H](CO)C(=O)N[C@H](C(=O)N[C@@H](CCC(=O)O)C(=O)N[C@H](C(=O)NCC(=O)N[C@@H](CO)C(=O)N[C@@H](CCC(=O)O)C(=O)N[C@H](C(=O)N1CCC[C@H]1C(N)=O)[C@@H](C)O)C(C)C)[C@@H](C)O)N(C)C(=O)[C@H](C)NC(=O)CN(C)C(=O)[C@H](Cc1ccccc1)NC(=O)[C@H](CO)NC(=O)[C@H](CO)NC(=O)[C@H](CO)NC(=O)[C@H](CO)NC(=O)[C@H](CCCNC(=N)N)NC(=O)[C@H](Cc1c[nH]cn1)NC(=O)[C@H](CC(C)C)NC(=O)[C@H](Cc1ccccc1)NC(=O)[C@H](CCC(=O)O)NC(=O)[C@H](C)NC(=O)[C@H](CC(C)C)NC(=O)[C@H](CCCNC(=N)N)NC(=O)[C@H](CO)NC(=O)[C@@H](NC(=O)[C@H](C)NC(=O)[C@@H]1CSSC[C@H](NC(=O)[C@H](CCCNC(=N)N)NC(=O)CC[C@H](NC(=O)CCCCCCCCCCCCCCCCCCC(=O)O)C(=O)O)C(=O)NCC(=O)N[C@@H]([C@@H](C)O)C(=O)N[C@@H](C)C(=O)N[C@@H]([C@@H](C)O)C(=O)N1)[C@@H](C)O` [Compound 141, [19CD]-isoGlu-RC()GTATC()ATSRLAEFLHRSSSSF-Gly(Me)-A-Ile(Me)-LSSTEVGSETP-NH2] ({C20 diacid-γGlu}-RCGTATCATSRLAEFLHRSSSSF[Sar]A[NMeI]LSSTEVGSETP-NH2; disulfide 2-7), the concentration for a half-maximal effect (EC50) in data set [1] worked out at 0.13 nM. Also, the EC50 in data set [2] was 0.11 nM. In addition, in data set [3], the “Solubility, Acetate buffer pH 4” value is listed as “SS (SS indicates solubility ≥ 1mg/ml)”; the “Solubility, Acetate buffer pH 5” value is “SS (SS indicates solubility ≥ 1mg/ml)”; the “Solubility, Histidine buffer pH 6” value is on record as “SS (SS indicates solubility ≥ 1mg/ml)”; the “Solubility, Histidine buffer pH 7” value is listed as “SS (SS indicates solubility ≥ 1mg/ml)”. In data set [3], the “Solubility, Phosphate buffer pH 6” value is “SS (SS indicates solubility ≥ 1mg/ml)”; the “Solubility, Phosphate buffer pH 7” value is on record as “SS (SS indicates solubility ≥ 1mg/ml)”; the “Solubility, Phosphate buffer pH 7.5” value is given as “SS (SS indicates solubility ≥ 1mg/ml)”.
